Results: the NIST ThermoML archive (doi:10.1021/je900137r)

Assay: molar heat capacity at constant volume
Details: Liquid, Vacuum adiabatic calorimetry

CCC [propane]
Details | molar heat capacity at constant volume [J/K/mol]
101.14 K, 5078 kPa | 59.59
102.31 K, 9415 kPa | 59.63
104.09 K, 13618 kPa | 59.63
105.25 K, 15961 kPa | 59.93
107.01 K, 19580 kPa | 59.8
108.15 K, 22430 kPa | 60.17
109.89 K, 26296 kPa | 60.2
111.02 K, 28556 kPa | 60.44
124.99 K, 4945 kPa | 59.16
126.59 K, 8062 kPa | 59.47
127.81 K, 10414 kPa | 59.44
129.39 K, 13480 kPa | 59.66
130.6 K, 15739 kPa | 59.6
132.17 K, 18723 kPa | 60.02
133.36 K, 20943 kPa | 60
134.92 K, 23869 kPa | 60.12
136.1 K, 26024 kPa | 60.14
137.64 K, 28865 kPa | 60.52
138.81 K, 30978 kPa | 60.43
149.78 K, 4666 kPa | 59.78
150.88 K, 6488 kPa | 59.62
152.48 K, 9113 kPa | 59.99
153.59 K, 10968 kPa | 60.1
155.17 K, 13482 kPa | 60.14
156.27 K, 15303 kPa | 60.05
157.84 K, 17768 kPa | 60.44
158.93 K, 19535 kPa | 60.5
160.49 K, 21973 kPa | 60.63
161.58 K, 23733 kPa | 60.93
163.12 K, 26095 kPa | 60.76
164.21 K, 27828 kPa | 61.2
165.73 K, 30131 kPa | 61.05
166.81 K, 31798 kPa | 61.54
174.72 K, 4244 kPa | 60.48
175.51 K, 5348 kPa | 60.54
177.36 K, 7916 kPa | 60.58
178.15 K, 9061 kPa | 60.86
179.97 K, 11523 kPa | 61.04
180.77 K, 12700 kPa | 61.22
182.57 K, 15077 kPa | 61.29
183.38 K, 16221 kPa | 61.34
185.16 K, 18570 kPa | 61.57
185.97 K, 19691 kPa | 61.79
187.72 K, 22005 kPa | 62.06
188.54 K, 23141 kPa | 62.12
190.27 K, 25385 kPa | 62.49
191.1 K, 26538 kPa | 62.39
192.81 K, 28708 kPa | 62.66
193.64 K, 29843 kPa | 62.88
195.33 K, 31980 kPa | 62.87
196.16 K, 33063 kPa | 63.39
199.29 K, 3434 kPa | 62.08
200.29 K, 4569 kPa | 62.02
201.88 K, 6487 kPa | 62.05
202.88 K, 7627 kPa | 62.29
204.46 K, 9498 kPa | 62.44
205.45 K, 10675 kPa | 62.72
207.03 K, 12468 kPa | 63.03
208.02 K, 13633 kPa | 63.07
209.59 K, 15407 kPa | 63.29
210.57 K, 16525 kPa | 63.38
212.13 K, 18295 kPa | 63.46
213.11 K, 19392 kPa | 63.48
214.66 K, 21152 kPa | 63.9
215.63 K, 22244 kPa | 63.92
217.18 K, 23972 kPa | 64.21
218.15 K, 25069 kPa | 64.71
219.69 K, 26749 kPa | 64.74
220.66 K, 27850 kPa | 64.89
222.18 K, 29491 kPa | 65.36
223.14 K, 30548 kPa | 65.25
224.67 K, 32203 kPa | 65.68
224.72 K, 3002 kPa | 64.29
225.63 K, 33221 kPa | 66
225.69 K, 3945 kPa | 64.4
227.28 K, 5514 kPa | 64.59
228.26 K, 6458 kPa | 64.54
229.84 K, 8010 kPa | 64.8
230.82 K, 8990 kPa | 65.2
232.38 K, 10480 kPa | 64.79
233.38 K, 11478 kPa | 65.49
234.92 K, 12923 kPa | 65.31
235.92 K, 13904 kPa | 65.71
237.46 K, 15350 kPa | 65.71
238.46 K, 16299 kPa | 66.07
239.99 K, 17746 kPa | 65.96
240.99 K, 18681 kPa | 66.68
242.51 K, 20123 kPa | 66.43
243.5 K, 21054 kPa | 66.99
245.03 K, 22471 kPa | 67.42
246.01 K, 23413 kPa | 67.65
247.54 K, 24804 kPa | 67.75
248.53 K, 25750 kPa | 67.69
249.66 K, 2670 kPa | 66.76
250.04 K, 27105 kPa | 67.7
250.68 K, 3498 kPa | 66.65
251.02 K, 28035 kPa | 68.22
252.25 K, 4769 kPa | 67.25
252.53 K, 29385 kPa | 68.06
253.26 K, 5557 kPa | 67.47
253.52 K, 30287 kPa | 68.63
254.85 K, 6861 kPa | 67.69
255.02 K, 31645 kPa | 68.71
255.85 K, 7667 kPa | 67.82
256 K, 32529 kPa | 69.58
257.44 K, 8938 kPa | 67.87
258.44 K, 9764 kPa | 67.88
260.02 K, 10999 kPa | 68.4
261.02 K, 11824 kPa | 68.53
262.61 K, 13051 kPa | 68.83
263.6 K, 13861 kPa | 69.03
265.2 K, 15091 kPa | 69.38
266.18 K, 15878 kPa | 69.32
267.79 K, 17120 kPa | 69.94
268.76 K, 17881 kPa | 69.68
